In patent publication US8158575B2, “Agent for the prevention and treatment of sexually transmitted diseases-I” (priority 2001, dated 2012):
Where “and” joins values, the source holds several entries; their conditions need not be identical. Identical values can stand only once.

Key:
HIV-1 RoJo = test: PBMC antiviral assay (RT activity); format: cell-based; conditions: 6 days, AZT control, read-out: HIV-1 RoJo Infected PBMCs IC50
Method: (§1) Human immunodeficiency virus type 1 (HIV-1) strain RoJo is a low passage pediatric isolate derived in the laboratories of Southern Research Institute (SRI). The SHIV89.6pd was obtained from Mark Lewis at SRI and stocks grown in human PBMCs for antiviral testing.
(§2) Peripheral blood monocular cells (PBMCs) were obtained from normal hepatitis and HIV-1 negative donors by ficoll hypaque gradient separation. Briefly, anti-coagulated blood was diluted 1:1 with Dulbecco's phosphate buffered saline without Ca^++ and Mg^++ (PBS) and layered over 14 mL of Lymphocyte separation media in a 50 ml centrifuge tube. Tubes were then centrifuged for 30 minutes at 600×g. […] The mononuclear cells were counted, viability determined by Trypan Blue dye exclusion and resuspended in RPMI 1640 medium supplemented with 15% FBS (heat inactivated), 2 mM L-glutamine, 100 U/mL penicillin, 100 µg/mL streptomycin, and 10 µg/mL gentamycin with 2 µg/mL phytohemagluttin (PHA) at 1×10^6 cells/mL. […]
(§3) Human peripheral blood mononuclear cells from a minimum of 2 donors, that have been blasted with PHA and IL-2, were counted, viability determined by Trypan Blue dye exclusion and mixed in equal ratios. […] The assay was incubated for 6 days in a humidified atmosphere at 37° C., 5% CO2, after which supernatants were collected, for analysis of RT activity and sister plates analyzed for cell viability by MTS dye reduction. […]

SHIV 89.6pd = test: PBMC antiviral assay (RT activity); format: cell-based; conditions: 6 days, AZT control, read-out: SHIV 89.6pd Infected PBMCs IC50
Method: as §1, §2, §3

PBMCs = test: MTS cell viability in PBMC assay; format: cell-based, human; conditions: AZT control
From the text: Human peripheral blood mononuclear cells from a minimum of 2 donors, that have been blasted with PHA and IL-2, were counted, viability determined by Trypan Blue dye exclusion and mixed in equal ratios. Pooled donors were used to minimize the variability observed between individual donors which results from quantitative and qualitative differences in HIV infection and overall response to the PHA and IL-2 of primary lymphocyte populations. The cells were resuspended at 1×10^6 cells/mL in RPMI 1640 without phenol red supplemented with 15% Fetal Bovine Serum (heat inactivated), 2 mM L-glutamine, 100 U/mL penicillin, 100 μg/mL streptomycin, 10 μg/mL gentamycin and IL-2 (20 U/mL, R&D Systems, Minneapolis, Minn.). Fifty microliters of cells were then distributed to the inner 60 wells of a 96 well round bottom microtiter culture plate in a standard format developed by the Infectious Disease Research department of Southern Research Institute. Each plate contains cell control wells (cells only), virus control wells (cells plus virus), and experimental wells (drug plus cells plus virus). Serially diluted compounds are added to the microtiter plate followed by the appropriate pre-titered strain of HIV-1 or SHIV-1. All samples were assayed in triplicate with a replicate plate without virus for the determination of compound toxicity. The final volume per well was 200 µL. The assay was incubated for 6 days in a humidified atmosphere at 37° C., 5% CO2, after which supernatants were collected, for analysis of RT activity and sister plates analyzed for cell viability by MTS dye reduction. Wells were also examined microscopically and any abnormalities noted.
At assay termination the assay plates were stained with the soluble tetrazolium-based dye MTS (CellTiter® Reagent Promega, Madison, Wis.) to determined cell viability and quantify compound toxicity. […] At termination of the PBMC assay 20 µL of MTS reagent was added per well, and the wells are incubated for 4 h at 37° C.
AZT has been used as a relevant positive control compound for the individual assays.

HeLa CD4 LTR […]-gal cells [1] = test: XTT toxicity on sister plate of the attachment assay; format: cell-based; conditions: XTT, sister plate
Method: This assay is designed to detect compounds that interact with the cell and block virus attachment, and/or compounds which interact with the forming attachment/fusion complex. The attachment assay is performed with HeLa CD4 LTR […]-gal cells. HeLa CD4 LTR […]-gal cells are routinely cultured with the required selection antibiotics. Twenty-four h prior to initiation of the assay the cells are trypsinized, counted and 1×10^4 cells placed in a 0.2 cm well in media without selection antibiotics. At 24 h media is removed and compound in media placed on the cells and incubated for 15 min at 37° C. A known titer of the IIIB strain of HIV is then added to the wells and the incubation continued for 1 h. At the end of the incubation the wells are washed 3 times with media and the culture continued for 40 to 48 h. At termination of the assay, media is removed and […]-galactosidase enzyme expression determined by chemiluminescence per manufacturers instructions (Tropix Gal-screen™, Bedford Mass.) by a single step chemiluminescent method using a single solution to lyse the cells and detect […]-galactosidase enzyme activity. Compound toxicity is monitored on a sister plate by XTT dye reduction. […] The virus adsorption interval of 1 h is sufficiently short that AZT, which requires phosphorylation to its active tri-phosphate form (AZT-TTP), is not active in this assay.

[2] = molecular target: T1, cell-to-cell fusion mediated by HIV-1 Env and CD4 (Human immunodeficiency virus type 1 group M subtype B, UniProt P04578); format: cell-based; conditions: TC50/IC50
T1 construct: expressed in transfected cells; host or cells: HeLa CD4 LTR beta-gal cells (CD4) co-cultured with HL2/3 cells (HIV-1 Env)
Method: (§4) The fusion assay assesses the ability of compounds to block cell-to-cell fusion mediated by HIV-1 Env and CD4 expressed on separate cells. This assay is sensitive to inhibitors of both the gp120/CD4 interaction and inhibitors of the X4 coreceptor. First, 5×10^3 HeLa CD4 LTR […]-gal cells are placed in microtiter wells and incubated overnight. The following day the media is removed and the HeLa CD4 LTR […]-gal cells are incubated for 1 h at 37° C. in fresh media with test compound. Following the incubation 5×10^3 HL2/3 cells are added and the incubation continued for 40 to 48 h. At 40 to 48 h […]-galactosidase enzyme expression is detected by chemiluminescence (Tropix Gal-screen™, Tropix, Bedford, Mass.). Compound toxicity is monitored on a sister plate using XTT dye reduction.

HeLa CD4 LTR […]-gal cells [3] = test: XTT toxicity on sister plate of the fusion assay; format: cell-based; conditions: XTT, sister plate
Method: as §4

ME180 cells = test: XTT cell viability in the CD4-independent transmission assay
Method: ME180 cells, a CD4 negative, X4 positive cervical epithelial cell line is maintained in RPMI 1640 supplemented with 10% fetal bovine serum, glutamine and antibiotics. Twenty-four h prior to the assay ME180 cells are trypsonized, washed and seeded in 96-well flat bottom microtiter plates at a density of 2×10^3 cells per well. On the day of the assay, H9 cells chronically infected with the SK1 clinical isolate of HIV-1 (H9-SK1) are treated with freshly made mitomycin C (200 μg/ml) for 60 minutes at 37° C. This concentration of mitomycin C is sufficient to result in cell death, but allows virus transmission to occur. After mitomycin C treatment the H9-SK1 cells are washed three times with tissue culture medium. Test compounds are added to the ME180 monolayer followed by 2×10^4 H9-SK1 cells. The ME180 cells are co-cultured with H9-SK-1 cells and test material for 4 h, and the H9-SK1 cells are removed by washing the ME180 monolayer three times with PBS. At 24 and 48 h post assay initiation the wells are again washed three times with PBS to ensure removal of the H9-SK1 cells, and culture continued in test material free media. At six days post-co-cultivation, supernatants are collected and evaluated for p24 antigen expression by ELISA. Cell viability is assessed by XTT dye reduction. […] Testing in the presence of mucin is carried out by addition of 200 µg/ml of porcine mucin (Sigma Chemical Co., St Louis, Mo.) to the transmission reactions. Transmission intervals and washing without replacement of mucin or compound are carried as described above. All determinations are performed in triplicate with serial ½ Log10 dilution of the test materials.
TC50 values for the test materials are derived by measuring the reduction of the tetrazolium dye XTT (2,3-bis(2-methoxy-4-nitro-5-sulfophenyl)-5-[(phenylamino)carbonyl]-2H-tetrazolium hydroxide) in replicate microtiter plates containing cell and compound without virus. […] XTT solution is prepared daily as a stock of 1 mg/mL in PBS. Phenazine methosulfate (PMS) solution is prepared at 15 mg/mL in PBS and stored in the dark at −20° C. XTT/PMS stock is prepared immediately before use by diluting the PMS 1:100 into PBS and adding 40 µl per mL of XTT solution. Fifty microliters of XTT/PMS are added to each well of the plate and the plate incubated for 4 h at 37° C. The 4 h incubation has been empirically determined to be within the linear response range for […] dye reduction with the indicated numbers of cells for each assay. Adhesive plate sealers are used in place of the lids, the sealed plate is inverted several times to mix the soluble formazan product and the plate is read at 450 nm with a Molecular Devices Vmax 96 well plate format spectrophotometer.
Dextran sulfate (positive) and dextran (negative) are used as controls for the CD4-dependent and CD4-independent HIV transmission inhibition assays. […] Commercially available Penicillin (10,000 U/ml) Streptomycin (10.0 mg/ml) solution is used as a positive control for the Lactobacillus sensitivity assay.

GHOST(3) X4/R5 cell line = test: XTT cell viability in the CD4-dependent transmission assay; format: cell-based, human
Method: The […] is carried out essentially as described for the CD4-independent transmission assay except for the use of the CD4 positive GHOST(3) X4/R5 cell line. This cell line is derived from the HOS (human osteosarcoma) cell line that is negative for HIV coreceptor and CD4 expression. The cell line is engineered to express T4 (CD4), R5 and X4 via non-selectable retroviral vectors and an HIV-2 LTR hGFP construct with a hygromycin selectable marker. The cell lines are handled and cultured as described above for the CD4-independent HIV inhibition assay, with the exception that 2.5×10^4 GHOST(3) X4/R5 and 5×10^2 mitomycin C treated H9/SK-1 cells are used in the assay. Addition of compounds, mitomycin C treatment and post-transmission washing to remove the H9/SK-1 cells are performed as described above to allow comparability of the two antiviral assays. Virus replication is assessed at 24 h post infection, following 3 washes, by measurement of cell-associated p24 by ELISA to ensure a single round of infection in the presence of CD4. Compound toxicity and cell viability are assessed by XTT dye reduction.

Cc1cn([C@H]2C[C@H](N=[N+]=[N-])[C@@H](CO)O2)c(=O)[nH]c1=O [AZT, reference compound]
IC50 (HIV-1 RoJo): 5 nM
IC50 (SHIV 89.6pd): 2 nM
HIV-1 RoJo Infected PBMCs TC50 (PBMCs; plate of the HIV-1 RoJo test): >1000 nM
SHIV 89.6pd Infected PBMCs TC50 (PBMCs; plate of the SHIV 89.6pd test): >1000 nM

COc1cc(-c2ccc(/N=N/c3ccc4c(S(=O)(=O)O)cc(S(=O)(=O)O)c(N)c4c3O)c(OC)c2)ccc1/N=N/c1ccc2c(S(=O)(=O)O)cc(S(=O)(=O)O)c(N)c2c1O [Chicago Sky Blue, reference compound]
Attachment Assay TC50 (HeLa CD4 LTR […]-gal cells [1]): >10 mg/L
Fusion Assay TI [2]: >12 and >16
Fusion Assay TC50 (HeLa CD4 LTR […]-gal cells [3]): >10 mg/L

dextran
CD4-Independent Transmission Assay TC50 (ME180 cells; Exp. 2, with mucin): >100 mg/L
CD4-Independent Transmission Assay TC50 (ME180 cells; Exp. 2, without mucin): >100 mg/L
CD4-Dependent Transmission Assay TC50 (GHOST(3) X4/R5 cell line; Exp. 1, without mucin): >100 mg/L
CD4-Dependent Transmission Assay TC50 (GHOST(3) X4/R5 cell line; Exp. 2, with mucin): >100 mg/L
CD4-Dependent Transmission Assay TC50 (GHOST(3) X4/R5 cell line; Exp. 2, without mucin): >100 mg/L

Dextran sulfate
CD4-Independent Transmission Assay TC50 (ME180 cells; Exp. 2, with mucin): >50 mg/L
CD4-Independent Transmission Assay TC50 (ME180 cells; Exp. 2, without mucin): >50 mg/L
CD4-Dependent Transmission Assay TC50 (GHOST(3) X4/R5 cell line; Exp. 1, without mucin): >100 mg/L
CD4-Dependent Transmission Assay TC50 (GHOST(3) X4/R5 cell line; Exp. 2, with mucin): >50 mg/L
CD4-Dependent Transmission Assay TC50 (GHOST(3) X4/R5 cell line; Exp. 2, without mucin): >50 mg/L
